{"source": "paper PMC9254721", "about": "“Global update on the susceptibilities of human influenza viruses to neuraminidase inhibitors and the cap-dependent endonuclease inhibitor baloxavir, 2018–2020” (Antiviral research, 2022)", "key": {"[1]": {"system": "A(H3N2) virus neuraminidase (NA)", "format": "biochemical, influenza A(H3N2) virus"}, "A(H1N1)pdm09 viruses": {"system": "A(H1N1)pdm09 viruses", "format": "cell-based, influenza A(H1N1)pdm09 virus"}, "influenza viruses [2]": {"system": "influenza viruses", "conditions": "PA-I38V, PA-E199G alone, when present in other subtypes; ref PA marker table; cited from earlier work"}, "A(H3N2) viruses": {"system": "A(H3N2) viruses", "format": "cell-based, influenza A(H3N2) virus"}, "[3]": {"system": "recombinant A(H1N1) virus", "conditions": "PA-A37S in a recombinant A(H1N1) virus; ref Hashimoto et al., 2021; cited from earlier work"}, "[4]": {"system": "B/Victoria-lineage viruses", "format": "cell-based, influenza B/Victoria-lineage virus"}, "influenza viruses [5]": {"system": "influenza viruses", "format": "cell-based, influenza virus"}, "[6]": {"system": "B/Victoria-lineage virus neuraminidase (NA)", "format": "biochemical, influenza B/Victoria-lineage virus"}, "[7]": {"system": "A(H1N1)pdm09 virus neuraminidase (NA)", "format": "biochemical, influenza A(H1N1)pdm09 virus"}}, "note": "Where “and” joins values, the source holds several entries; their conditions need not be identical. Equal values may be shown once.", "data": [{"smiles": "CCC(CC)[C@H](NC(C)=O)[C@@H]1[C@H](O)[C@@H](C(=O)O)C[C@H]1N=C(N)N", "note": "[Peramivir, peramivir]", "values": [{"measurement": "IC50 fold-change as compared to reference median IC50 values", "setting": "[1]", "result": "2 fold and 1.5 fold and 1 fold"}, {"measurement": "IC50 fold-change compared to reference median IC50 values", "setting": "[1]", "result": "2 (1) fold and 1.5 fold and 1 fold"}]}, {"smiles": "COC(=O)OCOc1c2n(ccc1=O)N([C@@H]1c3ccccc3SCc3c1ccc(F)c3F)[C@@H]1COCCN1C2=O", "note": "[baloxavir, baloxavir marboxil]", "values": [{"measurement": "Fold-change in susceptibility to baloxavir compared to PA sequence-matched control virus", "setting": "A(H1N1)pdm09 viruses", "result": "4.7 [4.1] fold and 2.90 [3.7] fold"}, {"measurement": "fold increase in EC50 compared to a PA sequence matched control", "setting": "A(H1N1)pdm09 viruses", "result": 4.1, "unit": "fold"}, {"measurement": "effect of substitutions on in vitro baloxavir susceptibility", "setting": "influenza viruses [2]", "result": "little or no effect"}, {"measurement": "fold increase in EC50 compared to the respective PA sequence-matched controls", "setting": "A(H3N2) viruses", "result": "< 3", "unit": "fold"}, {"measurement": "effect of substitution on baloxavir susceptibility", "setting": "[3]", "result": "did not alter baloxavir susceptibility"}, {"measurement": "EC50 fold-change as compared to reference median EC50", "setting": "[4]", "result": "0.88 [1.5] fold and 0.6 fold"}, {"measurement": "Fold-change in susceptibility to baloxavir compared to PA sequence-matched control virus", "setting": "[4]", "result": "0.88 [1.5] fold"}, {"measurement": "change in baloxavir susceptibility", "setting": "influenza viruses [5]", "result": "no change"}, {"measurement": "fold increase in EC50 as compared to the respective median EC50s", "setting": "influenza viruses [5]", "result": "< 3", "unit": "fold"}]}, {"smiles": "CCOC(=O)C1=C[C@@H](OC(CC)CC)[C@H](NC(C)=O)[C@@H](N)C1", "note": "[Oseltamivir, oseltamivir]", "values": [{"measurement": "inhibition phenotype (NI/RI/HRI)", "setting": "[1]", "result": "RI (key: normal inhibition (NI) is a <10-fold increase in the NAI IC50; RI is a 10- to 100-fold increase; HRI is a >100-fold increase)"}, {"measurement": "inhibition phenotype (NI/RI/HRI)", "setting": "[6]", "result": "RI/HRI"}]}, {"smiles": "[H]/N=C(\\N)N[C@H]1C=C(C(=O)O)O[C@@H]([C@H](OC)[C@H](O)CO)[C@@H]1NC(C)=O", "note": "[Laninamivir, laninamivir]", "values": [{"measurement": "inhibition phenotype (NI/RI/HRI)", "setting": "[7]", "result": "RI (key: normal inhibition (NI) is a <10-fold increase in the NAI IC50; RI is a 10- to 100-fold increase; HRI is a >100-fold increase)"}]}, {"smiles": "CC(=O)N[C@H]1[C@H]([C@H](O)[C@H](O)CO)OC(C(=O)O)=C[C@@H]1N=C(N)N", "note": "[Zanamivir, zanamivir]", "values": [{"measurement": "inhibition phenotype (NI/RI/HRI)", "setting": "[1]", "result": "RI (key: normal inhibition (NI) is a <10-fold increase in the NAI IC50; RI is a 10- to 100-fold increase; HRI is a >100-fold increase)"}]}]}
